In US20260262647A1, “Synergistic Compositions Containing Guanidine” (Thor GmbH, priority 2023, published 2026):
“And” between values parts separate entries of the source, which are not always exact repeats. Equal values may be shown once.

Experiments:
[1] = tested on: Pseudomonas spec. DSM 115322; experiment: Minimum inhibitory concentrations and synergy index in Müller-Hinton broth; type: cell-based; settings: for QA: Concentration of guanidine as the sole agent that shows an endpoint: guanidine (added as guanidine hydrochloride) alone, 48 hours at 30° C.
[2] = tested on: bacteria mixture A; experiment: Emulsion paint inoculated three times with bacteria mixture A, live bacteria count CFU/g; type: cell-based; settings: for CFU/g after inoculation: emulsion paint, 7 d
From the text: In example 34, the synergistic interaction between guanidine and a zinc compound (zinc oxide) with respect to microbial infestation was examined in an emulsion paint by adding particular amounts of guanidine in the form of guanidine hydrochloride and a zinc compound in the form of zinc oxide, and tested for stability to microbial infestation. The paint tested was an emulsion paint based on styrene-acrylate binder (PVK 77%, pH 8.8) for indoor use, produced in the laboratory, without addition of the usual preservatives.
The samples were inoculated repeatedly, three times in total, with a bacterial cell suspension of the following composition (2% v/w).
• Alcaligenes faecalis NCIMB 13145 • Escherichia coli DSM 13631 • Burkholderia cepacia DSM 9241 • Staphylococcus aureus DSM 799 • Pseudomonas aeruginosa DSM 50071 • Pseudomonas putida DSM 13624
The cell suspension of the bacteria mixture A was produced by growing the individual bacteria at 30° C. for 24 h in liquid culture on a shaker. The growth medium used for the bacteria was Müller-Hinton liquid medium. After growing, the individual liquid cultures were centrifuged, and the cells were resuspended in physiological saline solution. In order to adjust the mixture to a total cell count of 10^9/ml, the individual bacteria suspensions, if necessary, were diluted accordingly before being combined with saline solution. The cell count of the inoculum was determined in each case by chamber counting.
After each inoculation and after incubation at 30° C. for 7 days, microbial infestation was evaluated in the samples by determining the live bacteria count per g of paint (colony-forming units, CFU/g). The CFU/g was determined each time by taking an aliquot (1 g) from the previously homogenized sample and running a serial decadic dilution series in physiological saline solution (0.9% NaCl) by streaking on tryptic soy agar, followed by incubation of the agar plates at 30° C. for 48 h.

In the case of `N=C(N)N` [guanidine], the “QA: Concentration of guanidine as the sole agent that shows an endpoint” value (from here on “QA: Concentration of guanidine”) ([1]; MHB adjusted to pH 5.5) is reported as 12359 ppm, the “QA: Concentration of guanidine” value ([1]; MHB) is reported as 9269 ppm and 9105 ppm and the “Synergy index Qa/QA + Qb/QB” value ([1]; guanidine and AEPD) is reported as 1.00. For the same compound, the “Synergy index Qa/QA + Qb/QB” value ([1]; guanidine and AMP) was 1.00, the “Synergy index Qa/QA + Qb/QB” value ([1]; guanidine and BBIT) was 1.00 and the “Synergy index Qa/QA + Qb/QB” value ([1]; guanidine and BIT) was 1.00. For the same compound, the “Synergy index Qa/QA + Qb/QB” value ([1]; guanidine and DBDCB) was 1.00, the “Synergy index Qa/QA + Qb/QB” value ([1]; guanidine and DBNPA) was 1.00 and the “Synergy index Qa/QA + Qb/QB” value ([1]; guanidine and EDTA) was 1.00. For the same compound, the “Synergy index Qa/QA + Qb/QB” value ([1]; guanidine and EHG) was 1.00, the “Synergy index Qa/QA + Qb/QB” value ([1]; guanidine and HEDP) was 1.00 and the “Synergy index Qa/QA + Qb/QB” value ([1]; guanidine and IPBC) was 1.00. The “Synergy index Qa/QA + Qb/QB” value ([1]; guanidine and MBIT) was 1.00, the “Synergy index Qa/QA + Qb/QB” value ([1]; guanidine and MEA) was 1.00 and the “Synergy index Qa/QA + Qb/QB” value ([1]; guanidine and MIT) was 1.00. For the same compound, the “Synergy index Qa/QA + Qb/QB” value ([1]; guanidine and OIT) was 1.00, the “Synergy index Qa/QA + Qb/QB” value ([1]; guanidine and benzoic acid, pH 5.5) was 1.00 and the “Synergy index Qa/QA + Qb/QB” value ([1]; guanidine and benzyl alcohol) was 1.00. For the same compound, the “Synergy index Qa/QA + Qb/QB” value ([1]; guanidine and bronopol) was 1.00, the “Synergy index Qa/QA + Qb/QB” value ([1]; guanidine and citric acid, pH 5.5) was 1.00 and the “Synergy index Qa/QA + Qb/QB” value ([1]; guanidine and heptane-1,2-diol) was 1.00. For the same compound, the “Synergy index Qa/QA + Qb/QB” value ([1]; guanidine and hexane-1,2-diol) was 1.00, the “Synergy index Qa/QA + Qb/QB” value ([1]; guanidine and hexylglycerol) was 1.00 and the “Synergy index Qa/QA + Qb/QB” value ([1]; guanidine and isopropanol) was 1.00. The “Synergy index Qa/QA + Qb/QB” value ([1]; guanidine and lactic acid, pH 5.5) was 1.00, the “Synergy index Qa/QA + Qb/QB” value ([1]; guanidine and oPP) was 1.00 and the “Synergy index Qa/QA + Qb/QB” value ([1]; guanidine and octane-1,2-diol) was 1.00. The “Synergy index Qa/QA + Qb/QB” value ([1]; guanidine and pentane-1,2-diol) was 1.00, the “Synergy index Qa/QA + Qb/QB” value ([1]; guanidine and phenethyl alcohol) was 1.00 and the “Synergy index Qa/QA + Qb/QB” value ([1]; guanidine and phenoxyethanol) was 1.00. For the same compound, the “Synergy index Qa/QA + Qb/QB” value ([1]; guanidine and phenylpropanol) was 1.00, the “Synergy index Qa/QA + Qb/QB” value ([1]; guanidine and pyrithione) was 1.00 and the “Synergy index Qa/QA + Qb/QB” value ([1]; guanidine and salicylic acid, pH 5.5) was 1.00. The “Synergy index Qa/QA + Qb/QB” value ([1]; guanidine and sorbic acid, pH 5.5) was 1.00, the CFU/g after inoculation ([2]; Guanidine hydrochloride 1000 ppm (618 ppm guanidine), 1. inoculation) was 8.7 × 10^5 CFU/g and the CFU/g after inoculation ([2]; Guanidine hydrochloride 1000 ppm (618 ppm guanidine), 2. inoculation) was >10^6 CFU/g. The CFU/g after inoculation ([2]; Guanidine hydrochloride 1000 ppm (618 ppm guanidine), 3. inoculation) was >10^6 CFU/g, the CFU/g after inoculation ([2]; Guanidine hydrochloride 2500 ppm (1545 ppm guanidine), 1. inoculation) was <100 CFU/g and the CFU/g after inoculation ([2]; Guanidine hydrochloride 2500 ppm (1545 ppm guanidine), 2. inoculation) was <100 CFU/g. For the same compound, the CFU/g after inoculation ([2]; Guanidine hydrochloride 2500 ppm (1545 ppm guanidine), 3. inoculation) was >10^6 CFU/g, the CFU/g after inoculation ([2]; Guanidine hydrochloride 5000 ppm (3090 ppm guanidine), 1. inoculation) was <100 CFU/g and the CFU/g after inoculation ([2]; Guanidine hydrochloride 5000 ppm (3090 ppm guanidine), 2. inoculation) was <100 CFU/g. For the same compound, the CFU/g after inoculation ([2]; Guanidine hydrochloride 5000 ppm (3090 ppm guanidine), 3. inoculation) was <100 CFU/g, the “QA: Concentration of guanidine” value ([2]; guanidine alone in emulsion paint, endpoint after 3 inoculations up to a maximum of 1000 CFU/g) was 3090 ppm and the “Synergy index Qa/QA + Qb/QB” value ([2]; guanidine and zinc in emulsion paint, Qa, Qb) was 1.00.
